Test results reported in US7833795B2, “Assessment of cardiovascular risk using isoprostane biomarkers and COX-2 selective inhibitors” (The Trustees of the University of Pennsylvania, priority 2004, dated 2010).
Where two headings read alike, the source gives them in different places. Blank lines part the entries; values can stand above or below the molecule they belong to.

How the values were obtained:
eicosanoid biosynthesis = experiment: Urinary eicosanoid analyses in mice; type: in vivo, mouse
Protocol: Mice: In all cases, transgenic mice deficient in the indicated gene were compared with appropriate strain-, age-, and sex-matched control animals. The investigator was unaware of the genotype throughout the experiment. All procedures were approved and animal husbandry was overseen by the Institutional Animal Care and Usage Committee of the University of Pennsylvania.
Eicosanoid analyses: Urinary 2,3-dinor TxB2 and 2,3-dinor 6-keto PGF1α were measured in twenty four hour urines collected in metabolic cages. After extraction and purification by thin layer chromatography, they were analyzed by gas chromatography/mass spectrometry, as previously described (Egan et al., 2005, Circulation 111:334). Urinary PGE-M was measured by LC/MS/MS as follows: First, 10 ng of hexadeuterated PGE-M (9,15-dioxo-11α-hydroxy-2,3,4,5-tetranor-prostan-1,20-dioic-17,17,18,18,19,19-d6 acid; Cayman Chemical Co., Ann Arbor, Mich.) was added to 0.1 ml of mouse urine. Next, 50 μL of methoxyamine HCl, 1 g/L, was added and the sample was mixed and allowed to stand at room temperature for 15 minutes. The sample was then diluted to 1.0 ml with water and extracted on a Strata™-X solid phase extraction (SPE) cartridge (Phenomenex Inc., Torrance, Calif.). The SPE was eluted with 1.0 mL of 5% acetonitrile in ethyl acetate, dried, dissolved in 200 μL 10% acetonitrile in water, and injected for LC/MS/MS analysis. Transitions monitored were m/z 385→336 for the endogenous PGE-M and 391→342 for the internal standard.

mice [1] = conditions: mouse, in vivo
Protocol: Briefly, mice (12→16 weeks) were anesthetized with sodium pentobarbital (80 mg/kg, intraperitoneally). Following a midline cervical incision, the left common carotid artery was isolated and a Doppler flow probe (Model 0.5 VB, Transonic Systems Co., Ithaca, N.Y.) was applied. The probe was connected to a flowmeter (Transonic Model T105) and interpreted with Powerlab® (AD Instruments, Colorado Springs, Colo.), a computerized data acquisition program. Rose Bengal (Fisher Scientific, Fair Lawn, N.J.) was diluted to phosphate-buffered saline and then injected into the jugular vein in a volume of 0.12 ml at a concentration of 50 mg/kg. Immediately prior to injection, a 1.5-mW green light laser (540 nm) (Melles Griot, Carlsbad, Calif.) was applied to the desired site of injury from a distance of 5 cm carotid artery; blood flow was monitored for 120 minutes or until stable occlusion occurred, after which the mice still showing blood flow were assigned a value of 120 minutes. Stable occlusion was defined as a blood flow of 0 ml/min for 3 minutes.

mice [2] = experiment: Tail cuff blood pressure measurement; type: in vivo, mouse; conditions: celecoxib treatment, regular chow diet
Protocol: (i) Tail Cuff measurement: Resting systolic blood was measured in conscious mice (3-4 months old) using a computerized noninvasive tail-cuff system (Visitech Systems, Apex, N.C.). […] Mice were adapted to the system for 14 days; measurements of sessions 25 minutes in length were done once each day between 15:00 and 18:00. After that, blood pressure was recorded daily for 3 consecutive days in the same way. Data were collected and analyzed using updated BP 2000 software (http://www(dot)visitechsystems(dot)com/).

IP [3] = experiment: Whole blood platelet aggregation assay; conditions: 10 nM cicaprost, collagen 2 μg/ml ex vivo
[4] = tested on: mouse aortic smooth muscle cells (MASMC); experiment: H2O2-induced 8,12-iso-iPF2α-VI generation in MASMC; type: cell-based
Protocol: (§1) Mouse aortic smooth muscle cells (MASMCs): Primary aortic smooth muscle cells were prepared. […] Cells were cultured in Dulbecco's Modified Eagles medium (DMEM)/Ham's F12 (50/50) (Gibco BRL, Grand Island, N.Y.; with 15 mM HEPES and 2 mM glutamine) supplemented with 20% fetal bovine serum. Cells were routinely passaged using 0.05% trypsin/0.53 mM EDTA, seeded onto six well plates and used at 80-90% confluence, between passages five to nine.
Cicaprost (100 nM, Schering A G, Berlin, Germany by agreement) was added to MASMC medium just prior to addition of H2O2.
Short term treatment with E2: Cells were washed twice rinsing with RPMI serum free medium and then pre-incubated in 1 ml RPMI serum free medium for 1 hour. […] .
The 8,12-iso-iPF2α-VI was analyzed in 1 ml conditioned medium, adjusted to pH 3, using the same method described for urine samples.

IP [5] = target: T1, IP (Mus musculus, UniProt P43252); experiment: Direct measurement of blood pressure after cicaprost; type: in vivo; conditions: cicaprost 1 μg/kg iv
T1 construct: from tissue; host or cells: live anesthetized mice (WT, IP+/- and IP-/- littermates, C57BL/6 background); vasculature
T1 sequence (P43252 1-412 limits assumed): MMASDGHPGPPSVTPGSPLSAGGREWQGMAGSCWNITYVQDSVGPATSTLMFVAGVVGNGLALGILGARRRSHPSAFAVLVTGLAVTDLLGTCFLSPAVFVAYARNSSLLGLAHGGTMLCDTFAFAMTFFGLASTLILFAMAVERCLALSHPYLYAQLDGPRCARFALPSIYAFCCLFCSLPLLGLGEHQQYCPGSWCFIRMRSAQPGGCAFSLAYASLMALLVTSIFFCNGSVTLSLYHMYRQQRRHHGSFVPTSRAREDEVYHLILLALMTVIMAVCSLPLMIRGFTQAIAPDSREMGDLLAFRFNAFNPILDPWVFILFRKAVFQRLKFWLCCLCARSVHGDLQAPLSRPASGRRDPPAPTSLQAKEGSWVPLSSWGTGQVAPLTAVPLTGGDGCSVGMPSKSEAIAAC
Source text: (§2) IPKO and mPGES-1 KO mice: IPKO mice were backcrossed into a C57BL/6 genetic background (Cheng et al., 2002, Science 296: 539). IP^−/−, IP^+/−, and WT littermates were identified in litters generated by the intercross of IP^+/− animals by polymerase chain reaction analysis (PCR) of genomic DNA isolated from tail biopsy samples. Southern blot analysis confirmed the IP gene copy number. mPGES-1 KO mice were kindly provided by Pfizer Inc (New York, N.Y.). They were generated and maintained on the DBA/1 lacJ genetic background (Trebino et al., 2003, Proc. Natl. Acad. Sci. U.S.A. 100: 9044). Heterozygous animals were intercrossed, and the litters were screened by PCR analysis to identify both mPGES-1 KO and wild-type controls. Biochemical and functional analyses in each case were performed on mutant mice and WT littermate controls.
(§3) (iii) Direct measurement of blood pressure: Mice were anesthetized (ketamine 100 mg/kg, acepromazine 5 mg/kg) and placed on a temperature-controlled panel. The right internal jugular vein and left carotid artery were cannulated with PE-10 tubing. The arterial catheter was connected to a Capto SP844 pressure transducer (Capto, Horten, Norway), and blood pressure (BP) was monitored continuously with a Powerlab/8SP system (AD Instruments Inc.), as previously described (Hui et al., 2004, Circulation 110:3360; Rocca et al., 2000, Nat. Med. 6:219). Blood pressure and heart rate were continuously monitored for 20-40 minutes until stable values were obtained. After the equilibration period and the baseline BP was recorded, mice were injected via the right internal jugular vein with cicaprost (1 ug/kg in 4 mL/kg saline) as a bolus, and the same volume of saline was injected before cicaprost administration to exclude volume-mediated BP changes. The BP was continuously recorded until it returned to pretreatment baseline.

IP [6] = experiment: as above; type: in vivo, mouse; conditions: cicaprost 1 μg/kg iv, IP−/−
Source text: as §2, §3

heme oxygenase 1 (HO 1) = experiment: Heme oxygenase 1 Western blotting in MASMC; type: cell-based, mouse; conditions: 100 nM cicaprost, 8 hours, IP-dependent
Protocol: as §1
Heme oxygenase 1 (HO 1) Western Blotting: A polyclonal rabbit anti-heme oxygenase 1 (HO 1, ˜32 kDa) was purchased from Stressgen Biotechnologies, Victoria, BC, Canada. MASMCs were treated with 100 nM cicaprost for 8 hours in RPMI vehicle at 37° C. Control cells were treated with vehicle for the same time period. […] Protein isolated from aortae of high fat fed mice was quantitated by the BioRad DC assay for Western Blotting.

Male C57BL/6J mice [7] = conditions: nimesulide
Protocol: (§4) Animals: All animal studies were performed according to protocols approved by the Institutional Committee for Use and Care of Laboratory Animals. Male C57BL/6J mice, aged four to six weeks were used for the flow reduction models. The parental background strain of the male, four to six week old donor mice in the transplant studies was also C57BL/6J (H2b). The background of the recipient mice was C3H(H2k) (Taconic Farms Inc, Germantown, N.Y.).
(§5) Briefly, the distal left common carotid artery (LC) artery and its bifurcation into the external and internal carotid were exposed using blunt dissection. 9-0 nylon sutures (USSC Sutures, Norwalk, Conn.) were used to ligate the EC artery, incisions were closed (7-0 polypropylene) and mice were left to recover. Severe reduction in flow was achieved by ligating the LC artery just proximal to the external/internal carotid artery bifurcation. Five μm cross sections were used from parallel regions of RC and LC that were isolated in 5 millimeter (mm) blocks proximal to the ligation, until reaching a parallel point at the RC artery branchpoint with the right subclavian artery. […] Mice that developed thrombosis were excluded from the analysis. […] Urine was collected from individual mice using metabolic cages at four weeks of age, and again after a four week period of treatment, subsequent to either moderate or severe flow reduction. Urine samples were frozen at −20° for analysis.

Male C57BL/6J mice [8] = conditions: one week after LC ligation, severe flow reduction
Source text: as §5

Male C57BL/6J mice [9] = tested on: Male C57BL/6J mice
Protocol: as §4
Urine was collected over a 24 hour period in metabolic cages (Nalgene Labware, Deepwater, N.J.) with vehicle or nimesulide allowed ad libitum. Urinary levels of prostanoid metabolites were measured by stable isotope dilution methods as previously described. […] A urine aliquot (0.1 ml) was used for measurement of creatinine by an automated colorimetric assay (Sigma-Aldrich Co., St Louis, Mo.).
as §5

[10] = Case study of short term valdecoxib use; type: in vivo, human; conditions: valdecoxib 20 mg b.i.d. Person on oral contraceptive
Protocol: A ventilation-perfusion scan (VQ scan) was performed according to typical hospital procedure. Inhalation of 20.1 millicurie (mCi) of Xenon-133 gas was used for the ventilation scan. Intravenous injection of 4.1 mCi of Tc-99m-labelled MAA was used for the perfusion scan.
A person presented with pulmonary embolism. They had been taking, without complication, Ortho-Tricyclen® (0.180, 0.215, and 0.250 mg norgestimate cycles; 35 microgram (μg) ethinyl estradiol) for two years and Ortho Tri-cyclen® LO (same norgestimate; 25 μg ethinyl estradiol) for 14 months. A non-smoker, they lacked a relevant family history and was vigorously athletic.
One month prior to presentation, they developed neck pain. Disc protrusion at C5-C6 was detected by magnetic resonance imaging (MRI). The patient was prescribed valdecoxib 20 mg b.i.d. for two weeks. Their neck pain resolved. However, towards the end of this two-week treatment period, they developed left-sided pleuritic chest and shoulder pain after a 6 hour car ride. They were commenced on cyclobenzaprine 10 mg b.i.d. and continued on valdecoxib. Their left-sided pain abated gradually. However, 18 days later, they developed right-sided chest and shoulder pain. […]

[11] = small, short-term studies of cardiopulmonary bypass grafting; cited from earlier work
[12] = nimesulide, severe flow reduction

mean impact on time to occlusion, % of WT value (mice [1]): 56.2%
SMILES: CC1(C)OC(=O)C(c2cccc(F)c2)=C1c1ccc(S(C)(=O)=O)cc1 [DFU, 5,5-dimethyl-3-(3-fluorophenyl)-4-(4-methylsulphonyl)phenyl-2(5H)-furanone]
mean depression of urinary 2,3-dinor 6-keto PGF1α from pretreatment values (eicosanoid biosynthesis; DFU, WT mice): 71.2%
mean depression of urinary PGE-M from pretreatment values (eicosanoid biosynthesis; DFU, WT mice): 52.3%
urinary 2,3-dinor TxB2 vs pretreatment values (eicosanoid biosynthesis; DFU, WT mice): did not depress
urinary 2,3-dinor TxB2 (eicosanoid biosynthesis; DFU, WT mice, second value of the printed pair (4.63±1.3 vs.), order not stated): 6.0±1.1 ng/mg creatinine
urinary 2,3-dinor 6-keto PGF1α (eicosanoid biosynthesis; PGHS-2 inhibition, mice): suppressed substantially
urinary 2,3-dinor TxB2 (eicosanoid biosynthesis; treatment with PGHS-2 selective inhibitor, mice): unaltered significantly

SMILES: Cc1ccc(-c2cc(C(F)(F)F)nn2-c2ccc(S(N)(=O)=O)cc2)cc1 [celecoxib]
blood pressure compared to WT controls (mice [2]): elevated

SMILES: CCC#CC[C@H](C)[C@H](O)C#C[C@@H]1[C@H]2C/C(=C/COCC(=O)O)C[C@H]2C[C@H]1O [cicaprost]
platelet aggregation readout, second value printed for IP+/− mice (IP [3]): 100%
inhibition of platelet aggregation, % of the maximal inhibition observed in WTs (IP [3]; IP+/− mice): 86.7%
response of MASMCs to H2O2, iP generation ([4]; cicaprost 100 nM, H2O2 100 μM 30 min): limits the response
iP generation from unstimulated cells ([4]; cicaprost, MASMC without H2O2): does not significantly reduce
duration of the depressor response (IP [5]; IP+/−): 5.3 ± 1.1 min
maximal decline in mean arterial pressure from pretreatment baseline (IP [5]; IP+/−): 24%
maximal decline in mean arterial pressure from pretreatment baseline (IP [5]; WT): 36±3.5%
duration of the depressor response (IP [5]; WTs): 10.8 ± 2.5 min
depressor response, MAP (IP [6]): no change in MAP
maximal decline in mean arterial pressure from pretreatment baseline (IP [6]): 0%
HO 1 protein expression (heme oxygenase 1 (HO 1)): increased expression

SMILES: CS(=O)(=O)Nc1ccc([N+](=O)[O-])cc1Oc1ccccc1 [nimesulide]
lumen diameter and external elastic lamina diameter of RCs or LCs (Male C57BL/6J mice [7]; control mice): did not itself affect
flow dependent reduction in vessel size (luminal and EEL diameter) (Male C57BL/6J mice [7]; moderate or severe flow reduction): failed to alter
neointimal area, intimal hyperplastic response in LC (Male C57BL/6J mice [7]; severe flow reduction): markedly augmented the intimal hyperplastic response
blood flow in the LC, nimesulide vs vehicle (Male C57BL/6J mice [8]): marked reduction
urinary PGI-M (Male C57BL/6J mice [9]; nimesulide 40 mg/L in drinking water, chronic, control mice): depressed urinary PGI-M
urinary 2,3-dinor TxB2 excretion (Male C57BL/6J mice [9]; nimesulide, control conditions): failed to suppress
excretion of an isoprostane biomarker of lipid peroxidation (Male C57BL/6J mice [9]; nimesulide, control mice): did not alter excretion
urinary PGI-M (Male C57BL/6J mice [9]; nimesulide, moderate and severe reduction in flow): depressed PGI-M to a similar degree
oxidant stress, urinary 8,12-iso-iPF2α-VI (Male C57BL/6J mice [9]; [12]): markedly augmented
platelet activation, urinary 2,3-dinor TxB2 excretion (Male C57BL/6J mice [9]; [12]): markedly augmented

SMILES: Cc1onc(-c2ccccc2)c1-c1ccc(S(N)(=O)=O)cc1 [valdecoxib]
adverse event diagnosed in the patient [10]: left iliac vein thrombosis and bilateral pulmonary emboli
relative risk of heart attack and stroke [11]: three-fold increase
